In patent publication US8344158B2, “Fluorescent polymethine cyanine dyes” (Washington University, priority 2007, dated 2013):

Tests used:
[1] = UV-Vis absorption spectroscopy; format: physicochemical; conditions: for ε / λmax: in 25% aqueous DMSO
Method: UV-Vis and Fluorescent Spectroscopic Analysis. Stock solutions (3.0 mM) of the dye and its conjugates were prepared by dissolving them in DMSO. […] The molar extinction coefficient was obtained using Beer's law at 0.1-0.6 μM concentration of the dye. […]

[2] = Fluorescence spectroscopy (emission, relative quantum yield, brightness); format: physicochemical; conditions: for ΦF, relative fluorescence quantum yield: MeOH, ICG as standard; for λmax, em: in methanol (Table 1); for ΦB, relative brightness referenced to ICG: product of quantum yield and molar absorptivity, ICG = 1
Method: UV-Vis and Fluorescent Spectroscopic Analysis. Stock solutions (3.0 mM) of the dye and its conjugates were prepared by dissolving them in DMSO. […] The molar extinction coefficient was obtained using Beer's law at 0.1-0.6 μM concentration of the dye. The relative fluorescence quantum yield was determined using the equation: ΦF(x)=(As/Ax)(Fx/Fs)(nx/ns)^2ΦF(s)
where ΦF(X) is the fluorescence quantum yield, A is the absorbance, F is the area under the emission curve, n is the refractive index of the solvents used in measurement, and the subscripts s and x represent the standard and unknown, respectively. Indocyanine green (ICG) was used as a reference standard.

Row | λmax, abs [1] [nm] | ε [1] | λmax [1] [nm] | ΦF, relative fluorescence quantum yield [2] | λmax, em [2] [nm] | ΦB, relative brightness referenced to ICG [2] | ε (molar absorptivity) [1] [M⁻¹ cm⁻¹] | Structure (SMILES)
1 | 800 | 240 000 M^−1 cm^−1 | 800 | 0.088 | 811 | 1.3 | – | CC1(C)C(=CC=C2CCCC(C=CC3=[N+](CCCS(=O)(=O)[O-])c4ccc5ccccc5c4C3(C)C)=C2c2ccc(C(=O)O)cc2)N(CCCS(=O)(=O)[O-])c2ccc3ccccc3c21.[Na+] [Dye 2a]
2 | 800 | 240 000 M^−1 cm^−1 | 800 | 0.092 | 811 | 1.4 | – | CC1(C)C(=CC=C2CCCC(C=CC3=[N+](CCCCS(=O)(=O)[O-])c4ccc5ccccc5c4C3(C)C)=C2c2ccc(C(=O)O)cc2)N(CCCCS(=O)(=O)[O-])c2ccc3ccccc3c21.[Na+] [Dye 2b]
3 | 770 | 220 000 M^−1 cm^−1 | 770 | 0.10 | 785 | 1.4 | – | CC1(C)C(=CC=C2CCCC(C=CC3=[N+](CCCCS(=O)(=O)[O-])c4ccc(S(=O)(=O)[O-])cc4C3(C)C)=C2c2ccc(C(=O)O)cc2)N(CCCCS(=O)(=O)[O-])c2ccc(S(=O)(=O)[O-])cc21.[Na+].[Na+].[Na+] [Dye 2c]
4 | 785 | – | – | – | 807 | 1 | 204000 | CC1(C)C(/C=C/C=C/C=C/C=C2\N(CCCCS(=O)(=O)O)c3ccc4ccccc4c3C2(C)C)=[N+](CCCCS(=O)(=O)[O-])c2ccc3ccccc3c21 [ICG, indocyanine green, reference compound]
